Assay results: ChEMBL document CHEMBL1135899, “Design, synthesis, and evaluation of opioid analogues with non-peptidic beta-turn scaffold: enkephalin and endomorphin mimetics” (J Med Chem, 2002)

Assays:
[1] = target: Mu-type opioid receptor (Homo sapiens) (UniProt P35372); experiment: Ability to displace [3H]DAMGO from human Opioid receptor mu 1 at 0.1 uM.
Opioid receptor = Opioid receptor (Rattus norvegicus, UniProt P33533+P34975+P33535); experiment: Inhibition of [3H]-Naloxone binding to opioid receptor in rat cerebral cortex; assay type: tissue-based
[2] = target: delta opioid receptor (Homo sapiens) (UniProt P41143); experiment: Displacement of [3H]DPDPE from human delta opioid receptor at 0.1 uM
delta opioid receptor (Homo sapiens), sequence (P41143 whole entry, looked up): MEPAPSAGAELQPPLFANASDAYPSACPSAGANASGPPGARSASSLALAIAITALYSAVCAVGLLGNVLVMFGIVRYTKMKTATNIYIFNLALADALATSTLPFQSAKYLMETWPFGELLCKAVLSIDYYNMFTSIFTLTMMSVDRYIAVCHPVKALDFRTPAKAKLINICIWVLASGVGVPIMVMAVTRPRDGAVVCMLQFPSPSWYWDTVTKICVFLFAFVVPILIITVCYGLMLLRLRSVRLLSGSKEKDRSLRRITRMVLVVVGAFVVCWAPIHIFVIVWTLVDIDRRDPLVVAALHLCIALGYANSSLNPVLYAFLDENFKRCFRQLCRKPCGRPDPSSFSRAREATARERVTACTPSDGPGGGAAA

[3] = target: Kappa-type opioid receptor (Homo sapiens) (UniProt P41145); experiment: Ability to displace [3H]-U 69593 from human Opioid receptor kappa 1 at 0.1 uM
Kappa-type opioid receptor (Homo sapiens), sequence (P41145 whole entry): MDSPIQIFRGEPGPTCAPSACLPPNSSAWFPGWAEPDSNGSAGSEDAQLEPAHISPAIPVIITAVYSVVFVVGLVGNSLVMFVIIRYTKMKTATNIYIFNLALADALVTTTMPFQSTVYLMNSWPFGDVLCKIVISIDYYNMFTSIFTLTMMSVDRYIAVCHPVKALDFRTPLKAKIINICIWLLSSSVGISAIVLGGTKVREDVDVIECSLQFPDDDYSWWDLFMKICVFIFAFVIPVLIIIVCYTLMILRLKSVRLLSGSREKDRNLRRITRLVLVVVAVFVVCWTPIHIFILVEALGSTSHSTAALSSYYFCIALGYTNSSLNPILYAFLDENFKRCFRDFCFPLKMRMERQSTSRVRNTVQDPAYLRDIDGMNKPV

[4] = target: T1, Opioid receptor (Rattus norvegicus) (UniProt P33533+P34975+P33535); experiment: Inhibition of [3H]naloxone binding to opioid receptor in rat cerebral cortex at 0.1 uM; assay type: tissue-based
T1 sequence (P33533 whole entry, looked up): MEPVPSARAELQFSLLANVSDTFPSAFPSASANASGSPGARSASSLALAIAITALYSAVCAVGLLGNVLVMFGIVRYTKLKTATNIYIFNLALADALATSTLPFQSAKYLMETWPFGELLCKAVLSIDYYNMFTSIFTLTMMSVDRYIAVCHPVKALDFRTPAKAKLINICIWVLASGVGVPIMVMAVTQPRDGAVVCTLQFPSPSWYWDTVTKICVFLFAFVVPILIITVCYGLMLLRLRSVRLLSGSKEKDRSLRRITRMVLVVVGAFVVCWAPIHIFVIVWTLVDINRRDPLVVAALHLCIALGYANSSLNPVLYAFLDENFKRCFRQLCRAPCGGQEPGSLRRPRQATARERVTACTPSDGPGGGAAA
T1 sequence (P33535 whole entry, looked up): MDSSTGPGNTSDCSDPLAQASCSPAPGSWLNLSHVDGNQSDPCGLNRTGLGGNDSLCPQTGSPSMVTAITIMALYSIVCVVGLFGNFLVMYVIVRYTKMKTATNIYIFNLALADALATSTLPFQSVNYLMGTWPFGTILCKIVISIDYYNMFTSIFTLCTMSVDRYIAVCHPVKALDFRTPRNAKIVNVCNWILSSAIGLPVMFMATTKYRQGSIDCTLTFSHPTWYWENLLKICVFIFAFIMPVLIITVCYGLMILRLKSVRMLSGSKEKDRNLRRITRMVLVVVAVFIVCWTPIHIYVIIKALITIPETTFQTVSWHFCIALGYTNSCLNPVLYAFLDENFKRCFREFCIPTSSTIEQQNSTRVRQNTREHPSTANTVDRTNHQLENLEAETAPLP
T1 sequence (P34975 whole entry, looked up): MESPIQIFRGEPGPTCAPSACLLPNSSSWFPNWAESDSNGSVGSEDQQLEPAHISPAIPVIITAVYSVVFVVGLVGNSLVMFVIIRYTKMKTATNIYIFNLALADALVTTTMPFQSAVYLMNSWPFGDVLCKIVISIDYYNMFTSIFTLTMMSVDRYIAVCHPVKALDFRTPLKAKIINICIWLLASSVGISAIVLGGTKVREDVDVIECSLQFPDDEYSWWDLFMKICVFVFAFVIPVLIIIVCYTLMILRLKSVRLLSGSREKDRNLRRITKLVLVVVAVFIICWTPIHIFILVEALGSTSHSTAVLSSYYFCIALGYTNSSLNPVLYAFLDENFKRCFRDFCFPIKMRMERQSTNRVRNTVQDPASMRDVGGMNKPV

[5] = target: Mu-type opioid receptor (Homo sapiens) (UniProt P35372); experiment: Ability to displace [3H]-DAMGO from human Opioid receptor mu 1 at 0.1 uM
[6] = target: T1, Opioid receptor (Rattus norvegicus); experiment: Inhibition of [3H]naloxone binding to opioid receptor in rat cerebral cortex at 1 uM; assay type: tissue-based

Mu-type opioid receptor (Homo sapiens), sequence (P35372 whole entry): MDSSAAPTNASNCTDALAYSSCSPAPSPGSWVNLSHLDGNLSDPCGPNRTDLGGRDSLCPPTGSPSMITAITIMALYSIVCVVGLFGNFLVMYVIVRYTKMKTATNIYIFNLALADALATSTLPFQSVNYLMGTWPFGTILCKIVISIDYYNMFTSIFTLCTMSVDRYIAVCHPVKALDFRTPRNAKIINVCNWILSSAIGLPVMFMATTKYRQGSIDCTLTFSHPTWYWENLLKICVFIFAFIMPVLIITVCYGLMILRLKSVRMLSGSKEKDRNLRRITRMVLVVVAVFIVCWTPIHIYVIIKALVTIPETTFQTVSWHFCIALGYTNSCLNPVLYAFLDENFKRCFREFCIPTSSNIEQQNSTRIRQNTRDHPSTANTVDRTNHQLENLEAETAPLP

Selectivity [1]	IC50 (Opioid receptor)	Selectivity [2]	Selectivity [3]	inhibition [4]	Selectivity [5]	inhibition [6]	SMILES
	27 nM	< 10%	< 10%	79%	91%	99%	CCCCCN1C[C@@H]2N(C(=O)OCCc3ccc(O)cc3)CCC(=O)N2[C@@H](CCc2ccccc2)C1=O
	80 nM					96%	O=C1[C@H](Cc2ccccc2)N2C(=O)CCN(C(=O)OCCc3ccc(O)cc3)[C@H]2CN1CCc1ccccc1
	149 nM					84%	CCCCCN1C[C@@H]2N(C(=O)OCCc3ccc(O)cc3)CCC(=O)N2[C@@H](Cc2ccccc2)C1=O

Continued, molecule first:

SMILES	Selectivity [1]	IC50 (Opioid receptor)	Selectivity [2]	Selectivity [3]	inhibition [4]	Selectivity [5]	inhibition [6]
O=C1[C@H](CCc2ccccc2)N2C(=O)CCN(C(=O)OCCc3ccc(O)cc3)[C@H]2CN1CCc1ccccc1	101%	9 nM	< 10%	< 10%	91%		
CCCCCNC(=O)[C@H](CCc1ccccc1)NC(=O)CCNC(=O)OCCc1ccc(O)cc1		> 1000 nM					< 10%
